Data from the kinase profiling compilation of Christmann-Franck et al. (2016).
Each block holds one compound with its values, some of them ahead of it.

How the values were obtained:
Test in all cases: Caliper, Mobility shift assay off-chip
PDPK1 (human) = PDPK1 (human) (UniProt O15530)
PTK2 (human) = PTK2 (human) (UniProt Q05397)
CDK7 CCNH MNAT1 (human) = CDK7 CCNH MNAT1 (human) (UniProt P50613+P51948+P51946)
CSNK1G3 (human) = CSNK1G3 (human) (UniProt Q9Y6M4)
JAK3 JH1 JH2 (human) = JAK3 JH1 JH2 (human) (UniProt P52333)
EPHB2 (human) = EPHB2 (human) (UniProt P29323)
RPS6KA4 KD1 KD2 (human) = RPS6KA4 KD1 KD2 (human) (UniProt O75676)
FGFR4 (human) = FGFR4 (human) (UniProt P22455)
IRAK1 (human) = IRAK1 (human) (UniProt P51617)
NTRK1 (human) = NTRK1 (human) (UniProt P04629)
FGR (human) = FGR (human) (UniProt P09769)
FGR (human), sequence (P09769 whole entry, looked up): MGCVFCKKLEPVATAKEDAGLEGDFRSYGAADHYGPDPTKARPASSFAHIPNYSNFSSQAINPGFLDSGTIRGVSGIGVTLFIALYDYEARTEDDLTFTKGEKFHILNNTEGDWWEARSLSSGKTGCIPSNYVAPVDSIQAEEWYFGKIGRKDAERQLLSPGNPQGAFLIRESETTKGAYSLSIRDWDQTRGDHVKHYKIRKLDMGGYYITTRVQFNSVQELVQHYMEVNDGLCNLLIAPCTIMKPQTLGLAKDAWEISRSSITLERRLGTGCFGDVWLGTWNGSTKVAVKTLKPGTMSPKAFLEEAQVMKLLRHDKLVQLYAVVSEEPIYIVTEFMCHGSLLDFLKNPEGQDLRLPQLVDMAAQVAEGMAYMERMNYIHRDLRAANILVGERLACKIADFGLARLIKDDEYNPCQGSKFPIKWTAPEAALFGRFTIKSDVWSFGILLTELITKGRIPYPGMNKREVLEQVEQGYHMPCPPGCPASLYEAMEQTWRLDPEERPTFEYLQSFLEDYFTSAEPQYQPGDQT

WNK2 (human) = WNK2 (human) (UniProt Q9Y3S1)
CSNK1D (human) = CSNK1D (human) (UniProt P48730)
FLT1 (human) = FLT1 (human) (UniProt P17948)
INSR (human) = INSR (human) (UniProt P06213)
[1] = test system: MAPK14 (human), Q16539 [T106M]
PTK2B (human) = PTK2B (human) (UniProt Q14289)
CDK3 CCNE1 (human) = CDK3 CCNE1 (human) (UniProt P24864+Q00526)
TAOK3 (human) = TAOK3 (human) (UniProt Q9H2K8)
TAOK3 (human), sequence (Q9H2K8 whole entry, looked up): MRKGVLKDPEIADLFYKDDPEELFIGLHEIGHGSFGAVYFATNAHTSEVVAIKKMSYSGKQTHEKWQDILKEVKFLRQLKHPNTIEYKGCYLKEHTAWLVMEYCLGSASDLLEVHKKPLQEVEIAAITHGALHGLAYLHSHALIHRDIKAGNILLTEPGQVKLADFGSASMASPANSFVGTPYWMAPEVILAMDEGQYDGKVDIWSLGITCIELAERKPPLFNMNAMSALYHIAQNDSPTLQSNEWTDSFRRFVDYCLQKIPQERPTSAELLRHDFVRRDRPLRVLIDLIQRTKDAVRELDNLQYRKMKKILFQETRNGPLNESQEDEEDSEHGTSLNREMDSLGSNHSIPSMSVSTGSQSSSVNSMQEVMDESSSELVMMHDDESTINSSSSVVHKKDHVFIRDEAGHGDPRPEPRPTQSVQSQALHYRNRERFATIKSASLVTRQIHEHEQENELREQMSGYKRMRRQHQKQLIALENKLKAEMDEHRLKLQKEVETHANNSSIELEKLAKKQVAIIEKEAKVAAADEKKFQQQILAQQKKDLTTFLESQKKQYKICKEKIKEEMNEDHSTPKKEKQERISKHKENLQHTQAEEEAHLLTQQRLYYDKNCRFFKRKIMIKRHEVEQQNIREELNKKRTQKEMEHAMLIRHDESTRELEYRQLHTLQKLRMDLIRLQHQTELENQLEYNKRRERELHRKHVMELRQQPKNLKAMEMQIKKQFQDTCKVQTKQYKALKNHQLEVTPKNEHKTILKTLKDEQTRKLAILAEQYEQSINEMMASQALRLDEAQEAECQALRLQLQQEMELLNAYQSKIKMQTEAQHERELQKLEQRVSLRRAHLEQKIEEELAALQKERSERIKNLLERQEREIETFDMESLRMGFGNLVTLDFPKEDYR

EPHB4 (human) = EPHB4 (human) (UniProt P54760)
WNK3 (human) = WNK3 (human) (UniProt Q9BYP7)
PRKACA (human) = PRKACA (human) (UniProt P17612)
NEK7 (human) = NEK7 (human) (UniProt Q8TDX7)
DAPK2 (human) = DAPK2 (human) (UniProt Q9UIK4)
PHKG2 (human) = PHKG2 (human) (UniProt P15735)
FRK (human) = FRK (human) (UniProt P42685)
FRK (human), sequence (P42685 whole entry, looked up): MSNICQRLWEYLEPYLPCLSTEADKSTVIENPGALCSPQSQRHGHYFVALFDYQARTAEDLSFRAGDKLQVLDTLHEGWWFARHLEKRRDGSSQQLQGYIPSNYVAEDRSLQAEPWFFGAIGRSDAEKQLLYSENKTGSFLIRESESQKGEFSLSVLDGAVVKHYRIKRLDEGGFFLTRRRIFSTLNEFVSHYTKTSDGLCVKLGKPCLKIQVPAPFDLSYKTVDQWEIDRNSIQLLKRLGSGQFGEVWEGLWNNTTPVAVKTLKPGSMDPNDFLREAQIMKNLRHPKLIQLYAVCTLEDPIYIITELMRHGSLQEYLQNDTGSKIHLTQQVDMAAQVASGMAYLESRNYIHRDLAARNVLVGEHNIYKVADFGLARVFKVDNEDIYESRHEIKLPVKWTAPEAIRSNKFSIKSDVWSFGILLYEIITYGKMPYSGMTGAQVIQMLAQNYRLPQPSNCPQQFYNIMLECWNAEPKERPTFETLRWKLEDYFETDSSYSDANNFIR

PRKCB2 (human) = PRKCB2 (human) (UniProt P05771)
RPS6KA3 KD1 KD2 (human) = RPS6KA3 KD1 KD2 (human) (UniProt P51812)
[2] = test system: KIT (human), P10721 [V560G]
LYN (human) = LYN (human) (UniProt P07948)
CAMK1D (human) = CAMK1D (human) (UniProt Q8IU85)
CAMK1D (human), sequence (Q8IU85 whole entry, looked up): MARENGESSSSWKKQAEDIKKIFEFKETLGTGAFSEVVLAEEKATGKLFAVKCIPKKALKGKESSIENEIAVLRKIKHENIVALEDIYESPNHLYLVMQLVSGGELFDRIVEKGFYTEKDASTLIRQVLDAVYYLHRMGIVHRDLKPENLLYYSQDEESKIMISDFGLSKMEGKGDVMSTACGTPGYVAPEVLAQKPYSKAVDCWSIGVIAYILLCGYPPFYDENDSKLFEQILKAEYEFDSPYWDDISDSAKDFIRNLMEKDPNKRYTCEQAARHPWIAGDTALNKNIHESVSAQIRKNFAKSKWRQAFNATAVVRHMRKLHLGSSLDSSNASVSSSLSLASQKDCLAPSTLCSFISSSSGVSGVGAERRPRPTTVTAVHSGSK

NLK (human) = NLK (human) (UniProt Q9UBE8)
CLK3 (human) = CLK3 (human) (UniProt P49761)
NEK3 (human) = NEK3 (human) (UniProt P51956)
NEK11 (human) = NEK11 (human) (UniProt Q8NG66)
NEK11 (human), sequence (Q8NG66 whole entry, looked up): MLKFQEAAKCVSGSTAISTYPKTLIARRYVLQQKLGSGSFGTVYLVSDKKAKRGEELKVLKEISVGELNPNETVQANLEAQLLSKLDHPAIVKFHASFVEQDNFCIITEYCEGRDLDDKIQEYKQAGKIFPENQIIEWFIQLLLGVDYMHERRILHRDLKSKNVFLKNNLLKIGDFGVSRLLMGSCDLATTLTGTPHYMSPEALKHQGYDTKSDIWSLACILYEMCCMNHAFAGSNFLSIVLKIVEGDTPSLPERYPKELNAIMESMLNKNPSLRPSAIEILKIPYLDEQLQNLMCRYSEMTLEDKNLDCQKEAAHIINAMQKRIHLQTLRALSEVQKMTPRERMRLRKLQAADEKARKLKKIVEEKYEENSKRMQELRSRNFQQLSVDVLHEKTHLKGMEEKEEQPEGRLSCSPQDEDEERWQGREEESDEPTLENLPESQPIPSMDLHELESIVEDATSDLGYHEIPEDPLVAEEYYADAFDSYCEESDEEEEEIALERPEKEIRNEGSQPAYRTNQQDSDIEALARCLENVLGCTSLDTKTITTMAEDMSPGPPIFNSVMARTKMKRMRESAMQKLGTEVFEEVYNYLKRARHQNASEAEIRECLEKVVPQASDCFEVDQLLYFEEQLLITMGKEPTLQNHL

[3] = test system: KIT (human), P10721 [V654A]
PAK6 (human) = PAK6 (human) (UniProt Q9NQU5)
FER (human) = FER (human) (UniProt P16591)
PDGFRB (human) = PDGFRB (human) (UniProt P09619)
PRKD1 (human) = PRKD1 (human) (UniProt Q15139)
TAOK2 (human) = TAOK2 (human) (UniProt Q9UL54)

PTK2 (human), sequence (Q05397 whole entry, looked up): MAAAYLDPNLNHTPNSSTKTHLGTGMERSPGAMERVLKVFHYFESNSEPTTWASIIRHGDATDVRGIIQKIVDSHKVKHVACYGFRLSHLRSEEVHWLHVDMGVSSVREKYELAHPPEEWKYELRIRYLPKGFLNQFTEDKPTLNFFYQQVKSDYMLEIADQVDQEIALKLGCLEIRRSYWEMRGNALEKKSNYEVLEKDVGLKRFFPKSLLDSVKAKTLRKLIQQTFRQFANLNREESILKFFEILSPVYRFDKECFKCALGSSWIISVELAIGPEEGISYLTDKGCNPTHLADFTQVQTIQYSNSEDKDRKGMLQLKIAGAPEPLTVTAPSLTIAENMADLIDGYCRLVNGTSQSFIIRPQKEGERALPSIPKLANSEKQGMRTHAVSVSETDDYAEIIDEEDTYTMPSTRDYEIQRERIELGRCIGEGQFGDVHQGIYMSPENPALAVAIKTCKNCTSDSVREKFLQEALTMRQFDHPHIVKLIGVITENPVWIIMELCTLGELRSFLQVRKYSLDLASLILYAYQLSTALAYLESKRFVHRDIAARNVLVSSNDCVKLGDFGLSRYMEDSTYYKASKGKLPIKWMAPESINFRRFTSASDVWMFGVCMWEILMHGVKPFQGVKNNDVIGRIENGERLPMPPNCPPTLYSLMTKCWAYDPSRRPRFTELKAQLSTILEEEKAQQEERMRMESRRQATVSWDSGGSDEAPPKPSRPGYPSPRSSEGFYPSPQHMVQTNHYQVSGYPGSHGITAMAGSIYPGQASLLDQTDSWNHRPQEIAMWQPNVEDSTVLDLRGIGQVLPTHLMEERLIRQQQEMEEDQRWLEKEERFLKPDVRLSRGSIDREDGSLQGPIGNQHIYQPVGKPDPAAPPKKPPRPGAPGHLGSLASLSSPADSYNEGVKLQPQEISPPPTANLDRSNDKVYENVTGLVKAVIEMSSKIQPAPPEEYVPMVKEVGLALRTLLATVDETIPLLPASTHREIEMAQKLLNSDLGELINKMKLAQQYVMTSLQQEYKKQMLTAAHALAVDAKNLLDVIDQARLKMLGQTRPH
CDK7 CCNH MNAT1 (human), sequence (P50613 whole entry, looked up): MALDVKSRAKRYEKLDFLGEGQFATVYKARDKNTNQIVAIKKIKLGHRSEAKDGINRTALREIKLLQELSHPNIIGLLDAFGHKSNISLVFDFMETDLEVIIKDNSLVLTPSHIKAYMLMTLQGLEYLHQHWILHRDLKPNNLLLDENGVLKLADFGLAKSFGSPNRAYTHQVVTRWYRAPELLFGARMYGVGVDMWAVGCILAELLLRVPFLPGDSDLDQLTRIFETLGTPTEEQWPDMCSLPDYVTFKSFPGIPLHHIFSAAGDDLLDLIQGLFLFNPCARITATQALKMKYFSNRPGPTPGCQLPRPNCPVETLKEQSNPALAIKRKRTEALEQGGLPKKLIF
CDK7 CCNH MNAT1 (human), sequence (P51946 whole entry, looked up): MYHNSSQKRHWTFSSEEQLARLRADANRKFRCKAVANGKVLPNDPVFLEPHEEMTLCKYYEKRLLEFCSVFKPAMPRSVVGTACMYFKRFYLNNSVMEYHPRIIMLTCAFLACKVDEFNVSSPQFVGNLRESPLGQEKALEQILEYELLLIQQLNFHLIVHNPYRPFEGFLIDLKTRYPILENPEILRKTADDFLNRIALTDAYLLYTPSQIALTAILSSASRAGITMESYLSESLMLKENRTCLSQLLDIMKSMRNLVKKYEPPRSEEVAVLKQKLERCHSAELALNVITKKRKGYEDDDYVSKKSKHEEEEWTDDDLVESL
CDK7 CCNH MNAT1 (human), sequence (P51948 whole entry, looked up): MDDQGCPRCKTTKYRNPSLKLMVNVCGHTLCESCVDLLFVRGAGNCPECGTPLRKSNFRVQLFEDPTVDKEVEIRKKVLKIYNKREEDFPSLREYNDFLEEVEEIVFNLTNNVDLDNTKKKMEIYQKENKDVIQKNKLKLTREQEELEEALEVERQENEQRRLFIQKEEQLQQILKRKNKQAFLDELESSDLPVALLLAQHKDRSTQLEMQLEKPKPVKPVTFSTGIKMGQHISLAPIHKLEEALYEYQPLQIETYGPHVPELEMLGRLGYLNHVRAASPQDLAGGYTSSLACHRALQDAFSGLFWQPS

residual activity (PDPK1 (human); compound 10.0 µM): 0%
residual activity (PTK2 (human); compound 10.0 µM): 93%
SMILES: CC(C)(C)c1nc2c3ccc(F)cc3c3c(=O)[nH]ccc3c2[nH]1

residual activity (CDK7 CCNH MNAT1 (human); compound 1.0 µM): 75%
residual activity (CSNK1G3 (human); compound 1.0 µM): 87%
residual activity (JAK3 JH1 JH2 (human); compound 1.0 µM): 2%
residual activity (EPHB2 (human); compound 1.0 µM): 103%
residual activity (RPS6KA4 KD1 KD2 (human); compound 1.0 µM): 59%
residual activity (FGFR4 (human); compound 1.0 µM): 113%
residual activity (PDPK1 (human); compound 1.0 µM): 5%
residual activity (IRAK1 (human); compound 1.0 µM): 99%
residual activity (NTRK1 (human); compound 1.0 µM): 31%
residual activity (FGR (human); compound 1.0 µM): 97%
residual activity (WNK2 (human); compound 1.0 µM): 95%
residual activity (CSNK1D (human); compound 1.0 µM): 94%
residual activity (FLT1 (human); compound 1.0 µM): 14%
residual activity (INSR (human); compound 1.0 µM): 91%
residual activity ([1]; compound 1.0 µM): 95%
residual activity (PTK2B (human); compound 1.0 µM): 85%
residual activity (CDK3 CCNE1 (human); compound 1.0 µM): 89%
residual activity (TAOK3 (human); compound 1.0 µM): 10%
residual activity (EPHB4 (human); compound 1.0 µM): 110%
residual activity (WNK3 (human); compound 1.0 µM): 108%
residual activity (PRKACA (human); compound 1.0 µM): 77%
residual activity (NEK7 (human); compound 1.0 µM): 109%
residual activity (DAPK2 (human); compound 1.0 µM): 100%
residual activity (PHKG2 (human); compound 1.0 µM): 74%
residual activity (FRK (human); compound 1.0 µM): 93%
residual activity (PRKCB2 (human); compound 1.0 µM): 106%
residual activity (RPS6KA3 KD1 KD2 (human); compound 1.0 µM): 118%
residual activity ([2]; compound 1.0 µM): 15%
residual activity (LYN (human); compound 1.0 µM): 96%
residual activity (CAMK1D (human); compound 1.0 µM): 86%
residual activity (NLK (human); compound 1.0 µM): 58%
residual activity (CLK3 (human); compound 1.0 µM): 101%
residual activity (NEK3 (human); compound 1.0 µM): 99%
residual activity (NEK11 (human); compound 1.0 µM): 117%
residual activity ([3]; compound 1.0 µM): 73%
residual activity (PTK2 (human); compound 1.0 µM): 80%
residual activity (PAK6 (human); compound 1.0 µM): 145%
residual activity (FER (human); compound 1.0 µM): 129%
residual activity (PDGFRB (human); compound 1.0 µM): 97%
residual activity (PRKD1 (human); compound 1.0 µM): 53%
residual activity (TAOK2 (human); compound 1.0 µM): 37%
SMILES: O=C(NCCCNc1nc(Nc2cccc(NC(=O)N3CCCC3)c2)ncc1I)c1cccs1

SMILES: O=C(N[C@@H](COc1ccc2[nH]c(=O)[nH]c2c1)c1ccccc1)c1cccn(Cc2ccc(F)c(F)c2)c1=O
residual activity (CDK7 CCNH MNAT1 (human); compound 10.0 µM): 95%
residual activity (CSNK1G3 (human); compound 10.0 µM): 99%
residual activity (JAK3 JH1 JH2 (human); compound 10.0 µM): 98%
residual activity (EPHB2 (human); compound 10.0 µM): 90%
residual activity (RPS6KA4 KD1 KD2 (human); compound 10.0 µM): 106%
residual activity (FGFR4 (human); compound 10.0 µM): 108%
residual activity (IRAK1 (human); compound 10.0 µM): 100%
residual activity (NTRK1 (human); compound 10.0 µM): 108%
residual activity (FGR (human); compound 10.0 µM): 100%
residual activity (WNK2 (human); compound 10.0 µM): 104%
residual activity (CSNK1D (human); compound 10.0 µM): 110%
residual activity (FLT1 (human); compound 10.0 µM): 95%
residual activity (INSR (human); compound 10.0 µM): 98%
residual activity ([1]; compound 10.0 µM): 113%
residual activity (PTK2B (human); compound 10.0 µM): 98%
residual activity (CDK3 CCNE1 (human); compound 10.0 µM): 113%
residual activity (TAOK3 (human); compound 10.0 µM): 98%
residual activity (EPHB4 (human); compound 10.0 µM): 102%
residual activity (WNK3 (human); compound 10.0 µM): 99%
residual activity (PRKACA (human); compound 10.0 µM): 117%
residual activity (NEK7 (human); compound 10.0 µM): 102%
residual activity (DAPK2 (human); compound 10.0 µM): 94%
residual activity (PHKG2 (human); compound 10.0 µM): 101%
residual activity (FRK (human); compound 10.0 µM): 96%
residual activity (PRKCB2 (human); compound 10.0 µM): 96%
residual activity (RPS6KA3 KD1 KD2 (human); compound 10.0 µM): 124%
residual activity ([2]; compound 10.0 µM): 99%
residual activity (LYN (human); compound 10.0 µM): 115%
residual activity (CAMK1D (human); compound 10.0 µM): 95%
residual activity (NLK (human); compound 10.0 µM): 100%
residual activity (CLK3 (human); compound 10.0 µM): 115%
residual activity (NEK3 (human); compound 10.0 µM): 104%
residual activity (NEK11 (human); compound 10.0 µM): 126%
residual activity ([3]; compound 10.0 µM): 102%
residual activity (PTK2 (human); compound 10.0 µM): 103%
residual activity (PAK6 (human); compound 10.0 µM): 101%
residual activity (FER (human); compound 10.0 µM): 98%
residual activity (PDGFRB (human); compound 10.0 µM): 113%
residual activity (PRKD1 (human); compound 10.0 µM): 100%
residual activity (TAOK2 (human); compound 10.0 µM): 98%
